Assay results reported in patent US10770169B2, “Method of providing a treatment to a subject based on a dynamic pathway map” (THE REGENTS OF THE UNIVERSITY OF CALIFORNIA, priority 2010, dated 2020).

System: panel of 55 breast cancer cell lines
Assay: Cell growth inhibition assay (Cell Titer Glo, 72 h, 9 doses; GI50, TGI, LC50)
Type: cell-based, human
Conditions: value is the negative log10 of mol/L
[1] = AU565 cell line, censored GI50 values
[2] = BT474 cell line, censored GI50 values
[3] = CAMA1 cell line, censored GI50 values
[4] = HCC1143 cell line, censored GI50 values
[5] = HCC1187 cell line, censored GI50 values
[6] = HCC1395 cell line, censored GI50 values
[7] = HCC1419 cell line, censored GI50 values
[8] = HCC1428 cell line, censored GI50 values
[9] = HCC1500 cell line, censored GI50 values

## O=C1C(Cl)=C(NCCN2CCOCC2)C(=O)c2ncccc21 [NSC 663284]
600MPE cell line, censored GI50 values
  GI50: 5.34
[1]
  GI50: 5.81
BT20 cell line, censored GI50 values
  GI50: 5.48
[2]
  GI50: 5.56
BT483 cell line, censored GI50 values
  GI50: 6.02
[3]
  GI50: 5.58
[4]
  GI50: 5.70
[5]
  GI50: 5.68
[6]
  GI50: 6.16
[7]
  GI50: 5.72
[8]
  GI50: 5.59
[9]
  GI50: 5.42
HCC1937 cell line, censored GI50 values
  GI50: 6.07
HCC1954 cell line, censored GI50 values
  GI50: 5.22
Cell line 600MPE
  GI50: 5.34
Cell line AU565
  GI50: 5.81
Cell line BT20
  GI50: 5.48
Cell line BT474
  GI50: 5.56
Cell line BT483
  GI50: 6.02
Cell line CAMA1
  GI50: 5.58
Cell line HCC38
  GI50: 5.64
Cell line HCC70
  GI50: 5.51
Cell line HCC1143
  GI50: 5.70
Cell line HCC1187
  GI50: 5.68
Cell line HCC1395
  GI50: 6.16
Cell line HCC1419
  GI50: 5.72
Cell line HCC1428
  GI50: 5.59
Cell line HCC1500
  GI50: 5.42
Cell line HCC1937
  GI50: 6.07
Cell line HCC1954
  GI50: 5.22
Cell line HCC2185
  GI50: 5.96
Cell line HCC3153
  GI50: 5.73
Cell line LY2
  GI50: 6.27
Cell line MCF7
  GI50: 5.43
Cell line MDAMB134V
  GI50: 5.24
Cell line MDAMB175V
  GI50: 5.22
Cell line MDAMB361
  GI50: 5.14
Cell line MDAMB415
  GI50: 5.59
Cell line MDAMB453
  GI50: 5.26
Cell line MDAMB468
  GI50: 5.19
Cell line SKBR3
  GI50: 5.86
Cell line SUM52PE
  GI50: 5.61
Cell line SUM149PT
  GI50: 5.74
Cell line SUM159PT
  GI50: 5.64
Cell line SUM185PE
  GI50: 6.50
Cell line SUM225CWN
  GI50: 5.66
Cell line SUM1315MO
  GI50: 6.00
Cell line T47D
  GI50: 5.19
Cell line UACC812
  GI50: 5.43
Cell line ZR75B
  GI50: 5.26
Cell line ZR751
  GI50: 5.73

## NS(=O)(=O)c1ccc(Nc2nc(OCC3CCCCC3)c3[nH]cnc3n2)cc1 [NU6102]
[1]
  GI50: 4.64
[2]
  GI50: 4.56
[3]
  GI50: 4.91
[4]
  GI50: 4.87
[5]
  GI50: 5.11
[6]
  GI50: 5.24
[7]
  GI50: 4.54
[8]
  GI50: 4.87
[9]
  GI50: 4.78
HCC1806 cell line, censored GI50 values
  GI50: 4.64
Cell line AU565
  GI50: 4.64
Cell line BT20
  GI50: 4.23
Cell line BT474
  GI50: 4.56
Cell line BT483
  GI50: 4.18
Cell line CAMA1
  GI50: 4.91
Cell line HCC38
  GI50: 5.03
Cell line HCC70
  GI50: 4.69
Cell line HCC1143
  GI50: 4.87
Cell line HCC1187
  GI50: 5.11
Cell line HCC1395
  GI50: 5.24
Cell line HCC1419
  GI50: 4.54
Cell line HCC1428
  GI50: 4.87
Cell line HCC1500
  GI50: 4.78
Cell line HCC1806
  GI50: 4.64
Cell line HCC1937
  GI50: 4.27
Cell line HCC1954
  GI50: 4.34
Cell line HCC2185
  GI50: 4.85
Cell line HCC3153
  GI50: 4.81
Cell line LY2
  GI50: 4.32
Cell line MCF7
  GI50: 4.39
Cell line MDAMB134V
  GI50: 4.34
Cell line MDAMB175V
  GI50: 4.26
Cell line MDAMB361
  GI50: 4.77
Cell line MDAMB415
  GI50: 4.46
Cell line MDAMB436
  GI50: 4.28
Cell line MDAMB453
  GI50: 4.91
Cell line MDAMB468
  GI50: 4.85
Cell line SKBR3
  GI50: 4.51
Cell line SUM52PE
  GI50: 5.27
Cell line SUM149PT
  GI50: 5.08
Cell line SUM159PT
  GI50: 4.90
Cell line SUM185PE
  GI50: 5.53
Cell line SUM225CWN
  GI50: 4.30
Cell line SUM1315MO
  GI50: 5.40
Cell line T47D
  GI50: 4.82
Cell line UACC812
  GI50: 4.42
Cell line ZR75B
  GI50: 4.85
Cell line ZR751
  GI50: 4.76
